Literature values in US20100227874A1, “REDUCTION OF OXIDATIVE STRESS DAMAGE DURING OR AFTER EXERCISE” (NESTEC S.A., priority 2007, published 2010).

Tested on: rat adipocytes
Conditions: insulin-potentiating epididymal fat-cell assay with rat adipocytes

Row | Compound | Insulin activity in vitro
1 | O=C(O[C@@H]1Cc2c(O)cc(O)cc2O[C@@H]1c1ccc(O)c(O)c1)c1cc(O)c(O)c(O)c1 [epicatechin gallate] | enhance insulin activity
2 | O=C(O[C@@H]1Cc2c(O)cc(O)cc2O[C@@H]1c1cc(O)c(O)c(O)c1)c1cc(O)c(O)c(O)c1 [epigallocatechin gallate] | enhance insulin activity
